Laboratory results as given in patent US20010041706A1, “Blockade of taxane metabolism” (priority 2000, published 2001).

Experiments:
[1] = biological target: T1, CYP2C8 (Homo sapiens, UniProt P10632); conditions: previously reported; cited from earlier work
T1 sequence (P10632 1-490): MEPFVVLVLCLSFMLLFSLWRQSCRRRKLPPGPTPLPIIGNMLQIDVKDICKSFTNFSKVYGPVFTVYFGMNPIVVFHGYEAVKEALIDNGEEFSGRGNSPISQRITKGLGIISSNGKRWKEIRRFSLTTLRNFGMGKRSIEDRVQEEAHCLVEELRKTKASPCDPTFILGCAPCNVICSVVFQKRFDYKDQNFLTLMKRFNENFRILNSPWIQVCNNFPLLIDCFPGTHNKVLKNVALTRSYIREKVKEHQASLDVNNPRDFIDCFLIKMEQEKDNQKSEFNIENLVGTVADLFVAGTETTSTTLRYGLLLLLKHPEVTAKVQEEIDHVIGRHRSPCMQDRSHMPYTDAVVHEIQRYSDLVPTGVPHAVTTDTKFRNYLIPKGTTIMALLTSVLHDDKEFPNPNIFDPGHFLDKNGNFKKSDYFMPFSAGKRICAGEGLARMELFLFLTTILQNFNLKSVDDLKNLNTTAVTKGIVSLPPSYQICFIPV

[2] = Quercetin levels in mouse liver after oral dose (HPLC); format: in vivo; conditions: mice receiving oral quercetin 1000 mg/kg
Description: Quercetin twelve hours prior to paclitaxel had no effect on system exposure. […] The peak levels of quercetin measured in the livers of mice receiving oral supplementation were approximately 15 μM, and occurred between 8 and 12 hours after the dose.

[3] = system: paclitaxel metabolism; test: Paclitaxel metabolism in primary human hepatocytes, overall; format: cell-based; conditions: second experiment (FIG. 4), highest concentration tested (50 μM), 24 hours
[4] = biological target: cytochrome P450 3A4 (CYP3A4) (Homo sapiens, UniProt P08684); conditions: hepatocytes
[5] = biological target: T2, cytochrome P450 2C8 (CYP2C8) (Homo sapiens, UniProt P10632); conditions: hepatocytes
T2 sequence (P10632 1-490): T1 sequence (P10632 1-490)

[6] = system: paclitaxel metabolism; conditions: Jamis-Dow et al., Am J. Clin. Oncol. 1997; cited from earlier work

cytochrome P450 3A4 (CYP3A4), sequence (P08684 whole entry): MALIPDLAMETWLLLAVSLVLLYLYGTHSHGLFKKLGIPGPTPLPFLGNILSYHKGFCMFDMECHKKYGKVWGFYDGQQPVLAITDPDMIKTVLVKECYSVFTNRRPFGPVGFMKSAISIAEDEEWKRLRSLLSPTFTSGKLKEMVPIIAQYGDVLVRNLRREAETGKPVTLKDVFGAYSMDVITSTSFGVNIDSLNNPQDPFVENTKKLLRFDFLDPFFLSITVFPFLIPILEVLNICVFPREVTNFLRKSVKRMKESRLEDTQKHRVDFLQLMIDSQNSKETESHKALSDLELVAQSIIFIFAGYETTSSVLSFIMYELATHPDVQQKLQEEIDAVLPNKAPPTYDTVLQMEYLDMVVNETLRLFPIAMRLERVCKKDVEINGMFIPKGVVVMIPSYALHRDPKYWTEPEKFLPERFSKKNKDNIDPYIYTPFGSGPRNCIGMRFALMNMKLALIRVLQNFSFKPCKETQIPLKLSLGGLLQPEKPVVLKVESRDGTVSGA

Row | Compound | inhibition of the metabolism of paclitaxel by CYP2C8 [1] | peak levels of quercetin measured in the livers [2] | effect on paclitaxel metabolism [3] | inhibition of paclitaxel metabolism by CYP3A4 [4] | inhibition of paclitaxel metabolism by CYP2C8 [5] | inhibition of paclitaxel metabolism in humans [6]
1 | O=c1c(O)c(-c2ccc(O)cc2)oc2cc(O)cc(O)c12 [kaempherol] | selectively inhibit | – | – | – | – | –
2 | O=c1c(O)c(-c2ccc(O)c(O)c2)oc2cc(O)cc(O)c12 [quercetin] | selectively inhibit | approximately 15 μM | modest effect | concentration-dependent manner | concentration-dependent manner | –
3 | O=C1C[C@@H](c2ccc(O)cc2)Oc2cc(O)cc(O)c21 [naringenin] | selectively inhibit | – | – | – | – | –
4 | CC(=O)N1CCN(c2ccc(OCC3COC(Cn4ccnc4)(c4ccc(Cl)cc4Cl)O3)cc2)CC1 (stereo not drawn) [ketoconazole] | – | – | – | – | concentration-dependent manner | unable to inhibit paclitaxel metabolism
